PMC6007937, “A cell-based infection assay identifies efflux pump modulators that reduce bacterial intracellular load” (PLoS Pathogens, 2018)
Like-named read-outs stand apart in the source and are kept apart here.

Biological target: AcrB (Escherichia coli, UniProt P31224)
Assay: isothermal titration calorimetry (ITC)
Assay type: binding

Chain of AcrB (P31224 whole entry): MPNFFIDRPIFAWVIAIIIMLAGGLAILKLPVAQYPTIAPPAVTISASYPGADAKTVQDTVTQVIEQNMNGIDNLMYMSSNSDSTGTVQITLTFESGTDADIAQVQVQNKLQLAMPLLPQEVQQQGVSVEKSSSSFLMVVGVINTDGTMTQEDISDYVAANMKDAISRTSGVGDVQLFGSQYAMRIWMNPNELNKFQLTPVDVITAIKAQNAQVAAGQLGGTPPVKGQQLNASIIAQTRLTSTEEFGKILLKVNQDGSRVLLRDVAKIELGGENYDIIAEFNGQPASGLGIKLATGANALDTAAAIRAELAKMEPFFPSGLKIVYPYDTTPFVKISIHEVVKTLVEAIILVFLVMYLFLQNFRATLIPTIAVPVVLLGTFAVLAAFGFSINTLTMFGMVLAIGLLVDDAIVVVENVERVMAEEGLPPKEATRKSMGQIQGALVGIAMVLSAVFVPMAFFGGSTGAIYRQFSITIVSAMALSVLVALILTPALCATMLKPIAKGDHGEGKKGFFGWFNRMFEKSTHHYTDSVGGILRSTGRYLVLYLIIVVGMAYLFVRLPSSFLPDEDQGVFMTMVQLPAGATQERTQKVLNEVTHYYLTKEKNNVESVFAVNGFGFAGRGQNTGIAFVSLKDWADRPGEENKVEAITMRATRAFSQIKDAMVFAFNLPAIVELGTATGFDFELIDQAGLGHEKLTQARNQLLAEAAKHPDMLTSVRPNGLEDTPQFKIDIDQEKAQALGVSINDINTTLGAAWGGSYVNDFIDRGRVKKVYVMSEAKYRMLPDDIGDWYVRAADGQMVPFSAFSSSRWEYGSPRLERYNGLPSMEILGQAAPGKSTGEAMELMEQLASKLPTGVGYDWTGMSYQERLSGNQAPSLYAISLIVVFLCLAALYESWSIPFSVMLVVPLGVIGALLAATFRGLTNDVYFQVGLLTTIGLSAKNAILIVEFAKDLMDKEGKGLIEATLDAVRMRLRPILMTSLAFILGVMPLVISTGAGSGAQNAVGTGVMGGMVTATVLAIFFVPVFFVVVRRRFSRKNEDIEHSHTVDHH

| SMILES | Kd | Kd (read-out: KD) |
| --- | --- | --- |
| OC(COc1ccc(Cl)c(Cl)c1)CN1CCC(Nc2nccc(C(F)(F)F)n2)CC1 (stereo not drawn) [EPM35] | 290 ± 30 nM |  |
| Cc1ccc(Sc2cccc3nc(N)nc(N)c23)cc1 [EPM43] |  | 560 ± 60 nM |
| CC(C)(C)c1nc(NC(=N)N)sc1Br [EPM30] |  | 1790 ± 370 nM |
